# Reference: US20260027118A1, “COMPOSITIONS USEFUL FOR MODULATING SPLICING” (Skyhawk Therapeutics, Inc., priority 2022, published 2026)
# pEC50, pIC50: −log10 of the molar value.
# What was measured:
# ATXN3-HiBiT protein = assay: ATXN3 HiBiT assay (Nano Glo HiBiT luminescence); type: cell-based; details: Kelly-ATXN3-HiBiT cells, luminescence read out 48 h after addition of the compound
# Source text: To monitor ATXN3 protein levels by luminescence, a Kelly-ATXN3-HiBiT cell line with homozygous knock-in of HiBiT at the C-terminus of the endogenous ATXN3 gene was used (knock-in of the HiBiT-tag coding sequence SEQ ID NO. 14: 5′[…]3′ into exon 11 of ATXN3 -position 1114 of ATXN3 RefSeq NM_004993.6). Manipulations of the Kelly-ATXN3-HiBiT cell line that result in downregulation of the ATXN3-HiBiT protein (through modulation of ATXN3-HiBiT pre-mRNA splicing) can be followed by monitoring the luminescence signal of the HiBiT tag using the Nano Glo HiBiT Lytic Detection System (Promega, #N3050). Kelly-ATXN3-HiBiT cells were maintained in RPMI 1640 w/Glutamax (Gibco, #61870010), 10% FBS (Sigma Aldrich, #F8687), 1% Penicillin/Streptomycin (Gibco, #15140-122) at 37° C., 5% CO2. To assess HiBiT-luminescence signal upon compound treatment, 2000 Kelly-ATXN3-HiBiT cells were seeded per well in 384 plate format. Compounds were added 24 h after seeding. ATXN3-HiBiT-luminescence signal was read out 48 h after addition of the compound using the Nano Glo HiBiT Lytic Detection System (Promega, #N3050) according to the manufacturer's instructions. To control for cell viability, an identically prepared sister plate was read out with the CellTiter-Glo® 2.0 Assay (Promega, #G9243) according to the manufacturer's instructions. Fold changes of ATXN3-HiBiT-luminescence and of CellTiter-Glo viability signals were calculated relative to a DMSO control condition.
# [1] = test system: ATXN3 transcripts containing exon 4; assay: ATXN3 Quantitative Splicing Assay (qPCR, E4E5 primers/probe); type: cell-based, Human; details: Homo sapiens; SK-N-MC cells, treated with compounds for 24 h, qPCR of transcripts containing exon 4
# Description: Human neuroblastoma SK-N-MC cells were plated in 384-well plates at 20,000 cells/well. Twenty-four hours after plating, cells were treated with compounds for 24 h at appropriate concentrations ranging from 30.M to 0.6 nM (0.300 DMS0). Treated cells were lysed in 15 μL of lysis buffer, and cDNA was synthesized using the Fast Advanced Cells-to-Ct kit. Two μL of each cDNA was used in qPCR reactions to confirm the exon 4 skipped transcripts of ATXN3. A second set of primers/probe E4E5 was used to detect the transcripts containing exon 4. The third set of primers/probe E8E9 was used to detect total gene level of ATXN3. The qPCR reactions were prepared in 384-well plates in 10 μL volume, using TaqMan™ Fast Advanced Master Mix with primers and probes shown in the table below. Reactions were run in a Quant Studio 6 qPCR instrument with default settings.
# The primers and probes are listed below in Table 4.
# total ATXN3 protein = assay: ATXN3 total protein assay (Mesoscale Discovery); type: cell-based, Human; details: SK-N-MC cells, 48 hours incubation, MSD assay
# Description: Human neuroblastoma SK-N-MC cells were seeded at 10,000 cells/well in 384 well plates one day prior to compound treatment. The concentrations of compounds were tested at appropriate doses ranging from 30 μM to 0.6 nM. After incubation for 48 hours, the cells were lysed with 25 μL of lysis buffer containing protease inhibitors, and total ATXN3 protein levels were assessed by Mesoscale Discovery (MSD) assay developed with one pair of anti-ATXN3 antibodies. The capture and detect antibodies were raised in mouse and rabbit respectively. Anti-rabbit MSD-ST antibody was used for secondary antibody. ATXN3 recombinant protein was used for standards. The readouts were captured with 35 μL of MSD read buffer and multi-array 384-well high binding plates.
SMILES,pEC50 (ATXN3-HiBiT protein),pIC50 [1],pIC50 (total ATXN3 protein)
"C[C@H](N)Cc1oc2c(NCc3cccs3)cc(Cl)nc2c1C#CC1CC1 [Compound 10, 2-[(S)-2-aminopropyl]-5-chloro-3-(2-cyclopropylethynyl)-7-thenylamino-1-oxa-4-azaindene]",5.30 to 6.30,5.30 to 6.30,5.30 to 6.30
"CC#Cc1c(C[C@@H](N)[C@H](C)F)oc2c(NCc3ccccc3)cc(Cl)nc12 [Compound 11, 2-[(2R,3S)-2-amino-3-fluorobutyl]-7-benzylamino-5-chloro-3-(1-propynyl)-1-oxa-4-azaindene]",7.00 to 11.00,7.00 to 11.00,6.30 to 7.00
"CC#Cc1c(C[C@@H](N)[C@H](C)F)oc2c(NCc3nccs3)cc(Cl)nc12 [Compound 12, 2-[(2R,3S)-2-amino-3-fluorobutyl]-5-chloro-3-(1-propynyl)-7-{[(1,3-thiazol-2-yl)methyl]amino}-1-oxa-4-azaindene]",7.00 to 11.00,7.00 to 11.00,6.30 to 7.00
"CC#Cc1c(C[C@@H](N)C2CC(F)(F)C2)oc2c(NCc3cccs3)cc(Cl)nc12 [Compound 15, 2-[(R)-2-amino-2-(3,3-difluorocyclobutyl)ethyl]-5-chloro-3-(1-propynyl)-7-thenylamino-1-oxa-4-azaindene]",5.30 to 6.30,5.30 to 6.30,5.30 to 6.30
"CCC#Cc1c(C[C@H](C)N)oc2c(NCc3cccs3)cc(Cl)nc12 [Compound 16, 2-[(S)-2-aminopropyl]-3-(1-butynyl)-5-chloro-7-thenylamino-1-oxa-4-azaindene]",6.30 to 7.00,6.30 to 7.00,6.30 to 7.00
"C[C@H](N)Cc1oc2c(NCc3cccs3)cc(Cl)nc2c1C#CCF [Compound 19, 2-[(S)-2-aminopropyl]-5-chloro-3-(3-fluoro-1-propynyl)-7-thenylamino-1-oxa-4-azaindene]",6.30 to 7.00,6.30 to 7.00,6.30 to 7.00
"CC#Cc1c(C[C@@H](N)COC)oc2c(NCc3cccs3)cc(Cl)nc12 [Compound 21, 2-[(R)-2-amino-3-methoxypropyl]-5-chloro-3-(1-propynyl)-7-thenylamino-1-oxa-4-azaindene]",7.00 to 11.00,7.00 to 11.00,6.30 to 7.00
"CCC#Cc1c(C[C@H](C)N)oc2c(NCc3ccco3)cc(Cl)nc12 [Compound 22, 2-[(S)-2-aminopropyl]-3-(1-butynyl)-5-chloro-7-(furfurylamino)-1-oxa-4-azaindene]",5.30 to 6.30,6.30 to 7.00,5.30 to 6.30
"CC#Cc1cc(NCc2cccs2)c2oc(C[C@@H](N)C3CC(F)(F)C3)c(C#CC)c2n1 [Compound 23, 2-[(R)-2-amino-2-(3,3-difluorocyclobutyl)ethyl]-3,5-bis(1-propynyl)-7-thenylamino-1-oxa-4-azaindene]",5.30 to 6.30,5.00 to 5.30,4.40 to 5.00
"CC#Cc1c(C[C@@H](N)C2CC2)oc2c(NCc3cccs3)cc(Cl)nc12 [Compound 24, 2-[(R)-2-amino-2-cyclopropylethyl]-5-chloro-3-(1-propynyl)-7-thenylamino-1-oxa-4-azaindene]",5.30 to 6.30,5.30 to 6.30,5.30 to 6.30
"CC#Cc1cc(NCc2cccs2)c2oc(C[C@@H](N)C3CC3)c(C#CC)c2n1 [Compound 25, 2-[(R)-2-amino-2-cyclopropylethyl]-3,5-bis(1-propynyl)-7-thenylamino-1-oxa-4-azaindene]",5.00 to 5.30,4.40 to 5.00,4.40 to 5.00
"C[C@H](N)Cc1oc2c(NCc3cccs3)cc(Cl)nc2c1C#CCO [Compound 26, 3-{2-[(S)-2-aminopropyl]-5-chloro-7-thenylamino-1-oxa-4-aza-3-indenyl}-2-propyn-1-ol]",6.30 to 7.00,6.30 to 7.00,5.30 to 6.30
"C[C@H](N)Cc1oc2c(NCc3ccco3)cc(Cl)nc2c1C#CCO [Compound 27, 3-{2-[(S)-2-aminopropyl]-5-chloro-7-(furfurylamino)-1-oxa-4-aza-3-indenyl}-2-propyn-1-ol]",5.30 to 6.30,5.30 to 6.30,5.30 to 6.30
"CC#Cc1cc(NCc2cccs2)c2oc(C[C@H](C)N)c(C#CC)c2n1 [Compound 28, 2-[(2S)-2-aminopropyl]-3,5-bis(prop-1-yn-1-yl)-N-(thiophen-2-ylmethyl)furo[3,2-b]pyridin-7-amine]",5.30 to 6.30,5.30 to 6.30,5.30 to 6.30
"CC#Cc1c(C(F)(F)[C@H](C)N)oc2c(NCc3cccs3)nc(Cl)nc12 [Compound 33, 2-[(S)-2-amino-1,1-difluoropropyl]-5-chloro-3-(1-propynyl)-7-thenylamino-1-oxa-4,6-diazaindene]",6.30 to 7.00,6.30 to 7.00,5.30 to 6.30
CC#Cc1c(C[C@H](C)N)oc2c(NCc3cccs3)c(F)c(Cl)nc12 [Compound 36],5.30 to 6.30,5.30 to 6.30,5.30 to 6.30
"CC#Cc1c(C[C@@H](N)COC)oc2c(NCc3nccs3)cc(Cl)nc12 [Compound 38, 2-[(R)-2-amino-3-methoxypropyl]-5-chloro-3-(1-propynyl)-7-{[(1,3-thiazol-2-yl)methyl]amino}-1-oxa-4-azaindene]",6.30 to 7.00,6.30 to 7.00,6.30 to 7.00
"CC#Cc1c(C[C@@H](N)COC)oc2c(NCc3ccco3)cc(Cl)nc12 [Compound 39, 2-[(R)-2-amino-3-methoxypropyl]-5-chloro-7-(furfurylamino)-3-(1-propynyl)-1-oxa-4-azaindene]",7.00 to 11.00,6.30 to 7.00,7.00 to 11.00
"CC#Cc1c(C[C@@H](N)[C@H](C)F)oc2c(NCc3ccco3)nc(Cl)nc12 [Compound 41, 2-[(2R,3S)-2-amino-3-fluorobutyl]-5-chloro-7-(furfurylamino)-3-(1-propynyl)-1-oxa-4,6-diazaindene]",7.00 to 11.00,7.00 to 11.00,7.00 to 11.00
"[2H]C([2H])(OC)[C@H](N)Cc1oc2c(NCc3cccs3)cc(Cl)nc2c1C#CC [Compound 46, 2-[(R)-2-amino-3-methoxy(3,3- ^2H2)propyl]-5-chloro-3-(1-propynyl)-7-thenylamino-1-oxa-4-azaindene]",7.00 to 11.00,7.00 to 11.00,6.30 to 7.00
